Measured values: publication PMC12209991 (Clinical Pharmacology in Drug Development, 2025)
Read-outs that look alike come from different tables or passages of the source.

Columns and labels:
[1] = Single ascending dose (SAD) pharmacokinetics in healthy volunteers; assay type: in vivo, human; details: for AUC(0-inf) / Cmax / Tmax: human, plasma, po
Method: (§1) Analytes were separated by HPLC on a Waters Atlantis T3 analytical column using a gradient mobile phase (mobile phase A: 10% acetonitrile, 90% water, 10 mM ammonium acetate, 0.3% formic acid; mobile phase B: 90% acetonitrile, 10% water, 10 mM ammonium acetate, 0.3% formic acid) run at 0.4 mL/min with initial mobile phase B concentration of 30%.

[2] = Multiple ascending dose (MAD) pharmacokinetics in healthy volunteers, BID for 14 days; assay type: in vivo, human; details: for AUC / Cmax / Tmax / half-life: human, plasma, oral; for Tmax: read-out: Tmax, median [min-max]
Method: as §1

- RBN-3143 dose excreted in urine unchanged ([1]; SAD and MAD cohorts, pooled urine): Approximately 16%
- AUC(0-inf) ([1]; 25 mg, single oral dose 25 mg, read-out: AUCinf, geometric mean (Geo CV%)): 734 ng·h/mL
- AUC(0-inf) ([1]; 25 mg, single oral dose 25 mg, read-out: AUCinf, mean (SD)): 752 ng·h/mL
- Cmax ([1]; 25 mg, single oral dose 25 mg, read-out: Cmax, geometric mean (Geo CV%)): 134 ng/mL
- Cmax ([1]; 25 mg, single oral dose 25 mg, read-out: Cmax, mean (SD)): 138 ng/mL
- Tmax ([1]; 25 mg, single oral dose 25 mg, read-out: Tmax, median [min-max]): 2 h
- AUC(0-inf) ([1]; 50 mg, single oral dose 50 mg, read-out: AUCinf, geometric mean (Geo CV%)): 1540 ng·h/mL
- AUC(0-inf) ([1]; 50 mg, single oral dose 50 mg, read-out: AUCinf, mean (SD)): 1560 ng·h/mL
- Cmax ([1]; 50 mg, single oral dose 50 mg, read-out: Cmax, geometric mean (Geo CV%)): 259 ng/mL
- Cmax ([1]; 50 mg, single oral dose 50 mg, read-out: Cmax, mean (SD)): 269 ng/mL
- Tmax ([1]; 50 mg, single oral dose 50 mg, read-out: Tmax, median [min-max]): 2 h
- AUC(0-inf) ([1]; 100 mg, single oral dose 100 mg, read-out: AUCinf, geometric mean (Geo CV%)): 3540 ng·h/mL
- AUC(0-inf) ([1]; 100 mg, single oral dose 100 mg, read-out: AUCinf, mean (SD)): 3610 ng·h/mL
- Cmax ([1]; 100 mg, single oral dose 100 mg, read-out: Cmax, geometric mean (Geo CV%)): 544 ng/mL
- Cmax ([1]; 100 mg, single oral dose 100 mg, read-out: Cmax, mean (SD)): 556 ng/mL
- Tmax ([1]; 100 mg, single oral dose 100 mg, read-out: Tmax, median [min-max]): 1.75 h
- AUC(0-inf) ([1]; 150 mg, single oral dose 150 mg, read-out: AUCinf, geometric mean (Geo CV%)): 5000 ng·h/mL
- AUC(0-inf) ([1]; 150 mg, single oral dose 150 mg, read-out: AUCinf, mean (SD)): 5050 ng·h/mL
- Cmax ([1]; 150 mg, single oral dose 150 mg, read-out: Cmax, geometric mean (Geo CV%)): 653 ng/mL
- Cmax ([1]; 150 mg, single oral dose 150 mg, read-out: Cmax, mean (SD)): 668 ng/mL
- Tmax ([1]; 150 mg, single oral dose 150 mg, read-out: Tmax, median [min-max]): 2 h
- AUC(0-inf) ([1]; 300 mg, single oral dose 300 mg, read-out: AUCinf, geometric mean (Geo CV%)): 6230 ng·h/mL
- AUC(0-inf) ([1]; 300 mg, single oral dose 300 mg, read-out: AUCinf, mean (SD)): 6440 ng·h/mL
- Cmax ([1]; 300 mg, single oral dose 300 mg, read-out: Cmax, geometric mean (Geo CV%)): 747 ng/mL
- Cmax ([1]; 300 mg, single oral dose 300 mg, read-out: Cmax, mean (SD)): 771 ng/mL
- Tmax ([1]; 300 mg, single oral dose 300 mg, read-out: Tmax, median [min-max]): 2 h
- AUC(0-inf) ([1]; 600 mg, single oral dose 600 mg, read-out: AUCinf, geometric mean (Geo CV%)): 11700 ng·h/mL
- AUC(0-inf) ([1]; 600 mg, single oral dose 600 mg, read-out: AUCinf, mean (SD)): 11900 ng·h/mL
- Cmax ([1]; 600 mg, single oral dose 600 mg, read-out: Cmax, geometric mean (Geo CV%)): 1200 ng/mL
- Cmax ([1]; 600 mg, single oral dose 600 mg, read-out: Cmax, mean (SD)): 1240 ng/mL
- Tmax ([1]; 600 mg, single oral dose 600 mg, read-out: Tmax, median [min-max]): 1.75 h
- AUC(0-inf) ([1]; 1000 mg, single oral dose 1000 mg, read-out: AUCinf, geometric mean (Geo CV%)): 16500 ng·h/mL
- AUC(0-inf) ([1]; 1000 mg, single oral dose 1000 mg, read-out: AUCinf, mean (SD)): 17700 ng·h/mL
- Cmax ([1]; 1000 mg, single oral dose 1000 mg, read-out: Cmax, geometric mean (Geo CV%)): 1460 ng/mL
- Cmax ([1]; 1000 mg, single oral dose 1000 mg, read-out: Cmax, mean (SD)): 1500 ng/mL
- Tmax ([1]; 1000 mg, single oral dose 1000 mg, read-out: Tmax, median [min-max]): 2.02 h
- Tmax ([1]; SAD, oral, across doses 25-1000 mg, read-out: Tmax (time of peak concentrations)): 2 h
- time to steady-state ([2]; BID dosing): ≤ 3 days
- AUC ([2]; 150 mg, 150 mg BID, Day 1, plasma, read-out: AUC12, geometric mean (Geo CV%)): 3470 ng·h/mL
- AUC ([2]; 150 mg, 150 mg BID, Day 1, plasma, read-out: AUC12, mean (SD)): 3610 ng·h/mL
- Cmax ([2]; 150 mg, 150 mg BID, Day 1, plasma, read-out: Cmax, geometric mean (Geo CV%)): 597 ng/mL
- Cmax ([2]; 150 mg, 150 mg BID, Day 1, plasma, read-out: Cmax, mean (SD)): 623 ng/mL
- Tmax ([2]; 150 mg, 150 mg BID, Day 1, plasma): 2.5 h
- half-life ([2]; 150 mg, 150 mg BID, Day 1, plasma, read-out: t1/2, geometric mean (Geo CV%) (converted)): 4.13 h
- half-life ([2]; 150 mg, 150 mg BID, Day 1, plasma, read-out: t1/2, mean (SD) (converted)): 4.52 h
- AUC ([2]; 150 mg, 150 mg BID, Day 14, plasma, read-out: AUC12, geometric mean (Geo CV%)): 5570 ng·h/mL
- AUC ([2]; 150 mg, 150 mg BID, Day 14, plasma, read-out: AUC12, mean (SD)): 5660 ng·h/mL
- Cmax ([2]; 150 mg, 150 mg BID, Day 14, plasma, read-out: Cmax, geometric mean (Geo CV%)): 846 ng/mL
- Cmax ([2]; 150 mg, 150 mg BID, Day 14, plasma, read-out: Cmax, mean (SD)): 861 ng/mL
- Tmax ([2]; 150 mg, 150 mg BID, Day 14, plasma): 2.5 h
- AUC ([2]; 300 mg, 300 mg BID, Day 1, plasma, read-out: AUC12, geometric mean (Geo CV%)): 5540 ng·h/mL
- AUC ([2]; 300 mg, 300 mg BID, Day 1, plasma, read-out: AUC12, mean (SD)): 5590 ng·h/mL
- Cmax ([2]; 300 mg, 300 mg BID, Day 1, plasma, read-out: Cmax, geometric mean (Geo CV%)): 907 ng/mL
- Cmax ([2]; 300 mg, 300 mg BID, Day 1, plasma, read-out: Cmax, mean (SD)): 925 ng/mL
- Tmax ([2]; 300 mg, 300 mg BID, Day 1, plasma): 2.5 h
- half-life ([2]; 300 mg, 300 mg BID, Day 1, plasma, read-out: t1/2, geometric mean (Geo CV%) (converted)): 4.15 h
- half-life ([2]; 300 mg, 300 mg BID, Day 1, plasma, read-out: t1/2, mean (SD) (converted)): 4.19 h
Structure (SMILES): CC(=O)N1CCC(COc2cc(F)c3c(=O)[nH]c(CSC4CCOCC4)nc3c2)CC1 [RBN‐3143]
